Measurements from PubChem BioAssay (NCI).
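A five-concentration, 48-hour dose response in 96-well plates underlies each endpoint, interpolated linearly between surrounding concentrations. GI50: concentration for 50% inhibition of growth. The concentration for full growth arrest is given as TGI.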

Columns and labels:
Assay in all cases: inhibition of tumour cell growth, NCI panel, 48 h
SNB-19 CNS = tested on: SNB-19 CNS
MCF7 breast = tested on: MCF7 breast
HCT-15 colon = tested on: HCT-15 colon
MDA-MB-435 = tested on: MDA-MB-435
KM12 colon = tested on: KM12 colon
NCI-H522 lung = tested on: NCI-H522 lung
EKVX NSCLC = tested on: EKVX NSCLC
RPMI-8226 leukemia = tested on: RPMI-8226 leukemia
HOP-92 NSCLC = tested on: HOP-92 NSCLC
SF-268 CNS = tested on: SF-268 CNS
A498 renal = tested on: A498 renal
HOP-62 NSCLC = tested on: HOP-62 NSCLC
SK-MEL-2 melanoma = tested on: SK-MEL-2 melanoma
HCC-2998 colon = tested on: HCC-2998 colon
SK-MEL-28 melanoma = tested on: SK-MEL-28 melanoma
PC-3 prostate = tested on: PC-3 prostate
UACC-257 melanoma = tested on: UACC-257 melanoma
NCI/ADR-RES ovarian = tested on: NCI/ADR-RES ovarian
CAKI-1 renal = tested on: CAKI-1 renal
MOLT-4 leukemia = tested on: MOLT-4 leukemia
COLO 205 colon = tested on: COLO 205 colon
OVCAR-4 ovarian = tested on: OVCAR-4 ovarian
CCRF-CEM leukemia = tested on: CCRF-CEM leukemia
UACC-62 melanoma = tested on: UACC-62 melanoma
786-0 renal = tested on: 786-0 renal
SW-620 colon = tested on: SW-620 colon
SN12C renal = tested on: SN12C renal
TK-10 renal = tested on: TK-10 renal
SR leukemia = tested on: SR leukemia
RXF 393 renal = tested on: RXF 393 renal
MDA-MB-231 breast = tested on: MDA-MB-231 breast
ACHN renal = tested on: ACHN renal
OVCAR-8 ovarian = tested on: OVCAR-8 ovarian
LOX IMVI melanoma = tested on: LOX IMVI melanoma
K-562 leukemia = tested on: K-562 leukemia
HT29 colon = tested on: HT29 colon
MALME-3M melanoma = tested on: MALME-3M melanoma
NCI-H226 lung = tested on: NCI-H226 lung
SK-OV-3 ovarian = tested on: SK-OV-3 ovarian
IGROV1 ovarian = tested on: IGROV1 ovarian
SNB-75 CNS = tested on: SNB-75 CNS
SF-539 CNS = tested on: SF-539 CNS
M14 melanoma = tested on: M14 melanoma
HCT-116 colon = tested on: HCT-116 colon
NCI-H460 lung = tested on: NCI-H460 lung
DU-145 prostate = tested on: DU-145 prostate
SK-MEL-5 melanoma = tested on: SK-MEL-5 melanoma
NCI-H23 lung = tested on: NCI-H23 lung
HS 578T breast = tested on: HS 578T breast
OVCAR-5 ovarian = tested on: OVCAR-5 ovarian
UO-31 renal = tested on: UO-31 renal
A549 NSCLC = tested on: A549 NSCLC
SF-295 CNS = tested on: SF-295 CNS
U251 CNS = tested on: U251 CNS

**Q.** `NC(N)=Nc1ccc(Oc2cccc(NC(N)=Nc3ccc(Cl)c(C(F)(F)F)c3)c2)cn1` was tested. Which GI50 (SNB-19 CNS) did it give?
**A.** 1280 nM

**Q.** And the TGI (SNB-19 CNS)?
**A.** 2680 nM

**Q.** What about the GI50 (MCF7 breast) of the same molecule?
**A.** 1240 nM

**Q.** And the TGI (MCF7 breast)?
**A.** 3.01 µM

**Q.** What about the GI50 (HCT-15 colon) of the same molecule?
**A.** 19.6 µM

**Q.** What about the TGI (HCT-15 colon) of the same molecule?
**A.** 67.6 µM

**Q.** And the GI50 (MDA-MB-435)?
**A.** 1660 nM

**Q.** What about the TGI (MDA-MB-435) of the same molecule?
**A.** 3.66 µM

**Q.** What about the GI50 (KM12 colon) of the same molecule?
**A.** 1470 nM

**Q.** And the TGI (KM12 colon)?
**A.** 2900 nM

**Q.** And the GI50 (NCI-H522 lung)?
**A.** 2190 nM

**Q.** And the TGI (NCI-H522 lung)?
**A.** 5.81 µM

**Q.** And the GI50 (EKVX NSCLC)?
**A.** 2770 nM

**Q.** And the TGI (EKVX NSCLC)?
**A.** 13.5 µM

**Q.** And the GI50 (RPMI-8226 leukemia)?
**A.** 1560 nM

**Q.** What about the TGI (RPMI-8226 leukemia) of the same molecule?
**A.** 4 µM

**Q.** And the GI50 (HOP-92 NSCLC)?
**A.** 1160 nM

**Q.** And the TGI (HOP-92 NSCLC)?
**A.** 3.43 µM

**Q.** What about the GI50 (SF-268 CNS) of the same molecule?
**A.** 1090 nM

**Q.** What about the TGI (SF-268 CNS) of the same molecule?
**A.** 2540 nM

**Q.** And the GI50 (A498 renal)?
**A.** 1690 nM

**Q.** What about the TGI (A498 renal) of the same molecule?
**A.** 6.24 µM

**Q.** And the GI50 (HOP-62 NSCLC)?
**A.** 2050 nM

**Q.** And the TGI (HOP-62 NSCLC)?
**A.** 5.76 µM

**Q.** What about the GI50 (SK-MEL-2 melanoma) of the same molecule?
**A.** 1780 nM

**Q.** What about the TGI (SK-MEL-2 melanoma) of the same molecule?
**A.** 3.37 µM

**Q.** What about the GI50 (HCC-2998 colon) of the same molecule?
**A.** 1670 nM

**Q.** And the TGI (HCC-2998 colon)?
**A.** 3.37 µM

**Q.** And the GI50 (SK-MEL-28 melanoma)?
**A.** 2040 nM

**Q.** And the TGI (SK-MEL-28 melanoma)?
**A.** 5.92 µM

**Q.** And the GI50 (PC-3 prostate)?
**A.** 1070 nM

**Q.** What about the TGI (PC-3 prostate) of the same molecule?
**A.** 2620 nM

**Q.** And the GI50 (UACC-257 melanoma)?
**A.** 2870 nM

**Q.** What about the TGI (UACC-257 melanoma) of the same molecule?
**A.** 12.8 µM

**Q.** And the GI50 (NCI/ADR-RES ovarian)?
**A.** 40.5 µM

**Q.** And the TGI (NCI/ADR-RES ovarian)?
**A.** > 100 µM

**Q.** What about the GI50 (CAKI-1 renal) of the same molecule?
**A.** 3.29 µM

**Q.** And the TGI (CAKI-1 renal)?
**A.** 17.4 µM

**Q.** And the GI50 (MOLT-4 leukemia)?
**A.** 2160 nM

**Q.** And the TGI (MOLT-4 leukemia)?
**A.** 8.08 µM

**Q.** What about the GI50 (COLO 205 colon) of the same molecule?
**A.** 1430 nM

**Q.** And the TGI (COLO 205 colon)?
**A.** 3.08 µM

**Q.** And the GI50 (OVCAR-4 ovarian)?
**A.** 2530 nM

**Q.** And the TGI (OVCAR-4 ovarian)?
**A.** 9.36 µM

**Q.** What about the GI50 (CCRF-CEM leukemia) of the same molecule?
**A.** 2270 nM

**Q.** And the TGI (CCRF-CEM leukemia)?
**A.** 10.3 µM

**Q.** And the GI50 (UACC-62 melanoma)?
**A.** 2380 nM

**Q.** What about the TGI (UACC-62 melanoma) of the same molecule?
**A.** 12.7 µM

**Q.** And the GI50 (786-0 renal)?
**A.** 4.83 µM

**Q.** And the TGI (786-0 renal)?
**A.** 24.8 µM

**Q.** What about the GI50 (SW-620 colon) of the same molecule?
**A.** 1940 nM

**Q.** And the TGI (SW-620 colon)?
**A.** 4.83 µM

**Q.** And the GI50 (SN12C renal)?
**A.** 2200 nM

**Q.** What about the TGI (SN12C renal) of the same molecule?
**A.** 8.97 µM

**Q.** What about the GI50 (TK-10 renal) of the same molecule?
**A.** 4.35 µM

**Q.** What about the TGI (TK-10 renal) of the same molecule?
**A.** 21.7 µM

**Q.** And the GI50 (SR leukemia)?
**A.** 1420 nM

**Q.** What about the TGI (SR leukemia) of the same molecule?
**A.** 3.76 µM

**Q.** What about the GI50 (RXF 393 renal) of the same molecule?
**A.** 1830 nM

**Q.** What about the TGI (RXF 393 renal) of the same molecule?
**A.** 4.78 µM

**Q.** What about the GI50 (MDA-MB-231 breast) of the same molecule?
**A.** 1990 nM

**Q.** And the TGI (MDA-MB-231 breast)?
**A.** 5.23 µM

**Q.** What about the GI50 (ACHN renal) of the same molecule?
**A.** 13.3 µM

**Q.** What about the TGI (ACHN renal) of the same molecule?
**A.** 29.4 µM

**Q.** What about the GI50 (OVCAR-8 ovarian) of the same molecule?
**A.** 3.3 µM

**Q.** And the TGI (OVCAR-8 ovarian)?
**A.** 18.7 µM

**Q.** And the GI50 (LOX IMVI melanoma)?
**A.** 1400 nM

**Q.** What about the TGI (LOX IMVI melanoma) of the same molecule?
**A.** 2740 nM

**Q.** And the GI50 (K-562 leukemia)?
**A.** 1510 nM

**Q.** And the TGI (K-562 leukemia)?
**A.** 10.6 µM

**Q.** And the GI50 (HT29 colon)?
**A.** 1910 nM

**Q.** And the TGI (HT29 colon)?
**A.** 5.64 µM

**Q.** And the GI50 (MALME-3M melanoma)?
**A.** 2300 nM

**Q.** And the TGI (MALME-3M melanoma)?
**A.** 7.91 µM

**Q.** What about the GI50 (NCI-H226 lung) of the same molecule?
**A.** 2180 nM

**Q.** What about the TGI (NCI-H226 lung) of the same molecule?
**A.** 6.25 µM

**Q.** And the GI50 (SK-OV-3 ovarian)?
**A.** 2700 nM

**Q.** And the TGI (SK-OV-3 ovarian)?
**A.** 10.4 µM

**Q.** What about the GI50 (IGROV1 ovarian) of the same molecule?
**A.** 1070 nM

**Q.** And the TGI (IGROV1 ovarian)?
**A.** 2510 nM

**Q.** What about the GI50 (SNB-75 CNS) of the same molecule?
**A.** 515 nM

**Q.** What about the TGI (SNB-75 CNS) of the same molecule?
**A.** 2920 nM

**Q.** What about the GI50 (SF-539 CNS) of the same molecule?
**A.** 1540 nM

**Q.** And the TGI (SF-539 CNS)?
**A.** 3.01 µM

**Q.** What about the GI50 (M14 melanoma) of the same molecule?
**A.** 3.22 µM

**Q.** And the TGI (M14 melanoma)?
**A.** 19.3 µM

**Q.** What about the GI50 (HCT-116 colon) of the same molecule?
**A.** 1730 nM

**Q.** And the TGI (HCT-116 colon)?
**A.** 4.86 µM

**Q.** What about the GI50 (NCI-H460 lung) of the same molecule?
**A.** 1480 nM

**Q.** What about the TGI (NCI-H460 lung) of the same molecule?
**A.** 3.6 µM

**Q.** What about the GI50 (DU-145 prostate) of the same molecule?
**A.** 2220 nM

**Q.** What about the TGI (DU-145 prostate) of the same molecule?
**A.** 5.27 µM

**Q.** And the GI50 (SK-MEL-5 melanoma)?
**A.** 2530 nM

**Q.** What about the TGI (SK-MEL-5 melanoma) of the same molecule?
**A.** 6.94 µM

**Q.** And the GI50 (NCI-H23 lung)?
**A.** 1730 nM

**Q.** What about the TGI (NCI-H23 lung) of the same molecule?
**A.** 4.15 µM

**Q.** What about the GI50 (HS 578T breast) of the same molecule?
**A.** 1780 nM

**Q.** What about the TGI (HS 578T breast) of the same molecule?
**A.** 4.63 µM

**Q.** What about the GI50 (OVCAR-5 ovarian) of the same molecule?
**A.** 1890 nM

**Q.** What about the TGI (OVCAR-5 ovarian) of the same molecule?
**A.** 5.73 µM

**Q.** What about the GI50 (UO-31 renal) of the same molecule?
**A.** 12.9 µM

**Q.** And the TGI (UO-31 renal)?
**A.** 29.6 µM

**Q.** And the GI50 (A549 NSCLC)?
**A.** 1910 nM

**Q.** What about the TGI (A549 NSCLC) of the same molecule?
**A.** 17.4 µM

**Q.** What about the GI50 (SF-295 CNS) of the same molecule?
**A.** 2080 nM

**Q.** And the TGI (SF-295 CNS)?
**A.** 7.97 µM

**Q.** And the GI50 (U251 CNS)?
**A.** 1260 nM

**Q.** What about the TGI (U251 CNS) of the same molecule?
**A.** 2830 nM
